Assay results: patent US12686854B2, “Method for enhancing secretory function of mesenchymal stem cells and application thereof” (SHANDONG UNIVERSITY, priority 2020, dated 2026)

Columns and labels:
PI3K-AKT pathway = test: In vitro ovary culture with VCD injury, Western blot of p-AKT and AKT; assay type: cell-based; conditions: PD4 mouse ovaries, 4 days in vitro culture, VCD 30 μM injury
Experimental: • S1. The concentrated conditioned medium was collected as described in Example 1. • S2. The solution for dissecting ovary containing 10% FBS and 1% penicillin-streptomycin was prepared in L15 medium. • S3. Ovarian culture preparation was performed. The medium of control group, VCD (30 μM) group, VCD+MSC-CM group and VCD+HA/MSC-CM group were prepared, and the embedded culture chamber was placed in 6-well plate containing 1.5 mL medium per well for 2 hours. • S4. The ovaries of postnatal day 4 (PD4) mice were isolated in freshly prepared dissecting solution under stereoscope. The surrounding tissues and ovarian capsule were gently peeled off, which should move quickly and not damage ovarian tissues. • S5. The obtained ovaries were washed three times with dissecting solution and transferred to an operation table as soon as possible. Before the ovaries were placed in the chambers of each group, the ovaries were washed three times with the corresponding medium of each group. After washing, they were placed in the middle of the culture chambers of each group and placed at intervals. The solution was changed on the second day. After 4 days of in vitro culture, the ovarian tissues were collected to extract protein. • S6. The changes of the expression of p-AKT and AKT protein were detected by Western blot.

[1] = test system: germ cells in mouse ovaries; test: In vitro ovary culture with VCD injury, DDX4 immunohistochemical staining of germ cells; assay type: cell-based; conditions: 8 days in vitro culture

SMILES: C1CC2OC2CC1C1CO1 (stereo not drawn) [VCD, 4-vinylcyclonhexene diepoxide]
- expression level of p-AKT (PI3K-AKT pathway): decreased significantly
- ovarian volume ([1]; VCD 30 μM): decreased
- number of germ cells (DDX4 staining) ([1]; VCD 30 μM injury): decreased significantly
